Test results as given in patent publication US20260335238A1, “SPRAY-DRIED COMPOSITIONS COMPRISING CGRP RECEPTOR ANTAGONISTS” (OREXO AB, priority 2023, published 2026).

Assay: Chemical stability of spray-dried zavegepant powder on storage, assay and % RS by HPLC/UV
Type: physicochemical
Conditions: zavegepant formulated as spray-dried powder, stored up to 6 months at 25/60 and 40/75
Protocol: The assay and purity, determined by HPLC/UV analysis, was 103.4% with a % RS of 1.46%.
Amounts of around 100 mg of the spray-dried powder from Example 2 above was dispensed into plastic DUMA containers placed in heat-sealed aluminium pouches together with a 4 Å molecular sieve desiccant. Two containers were placed inside a climate cabinet at 40 °C and 75% relative humidity (40/75) and two containers were placed inside a climate cabinet at 25 °C and 60% relative humidity (25/60).
The chemical stability of the drug substance after 6 months, with assay and total amounts of impurities and degradation products expressed as % RS, is summarized for the different climates in Table 3 below, in which NA means ‘not analysed’.

In the case of `Cc1cc(C[C@@H](NC(=O)N2CCC(c3cc4ccccc4[nH]c3=O)CC2)C(=O)N2CCN(C3CCN(C)CC3)CC2)cc2cn[nH]c12` [zavegepant], the “chemical stability (observed changes in % RS)” value is reported as “surprisingly good”.
